In US6864253B2, “Benzo[4,5]thieno[2,3-c]pyridine and Benzo[4,5]furo[2,3-c]pyridine Derivatives Useful as Inhibitors of Phosphodiesterase” (Orth-McNeil Pharmaceutical, Inc., priority 2000, dated 2005):
Several values for one entry are separate records, joined by “and”; a condition that tells them apart may be missing. Equal values may be shown once.

biological target: PDEV (Oryctolagus cuniculus, UniProt G1SX67); assay: Cyclic nucleotide phosphodiesterase (PDE) assay, inhibition of PDEV isolated from rabbit tissue; assay type: biochemical; conditions: 10 μM test compound; rabbit PDEV
Experimental: Briefly, rabbit or human tissues were homogenized in an ice-cold buffer solution containing 20 mM HEPES (pH 7.2), 0.25M sucrose, 1 mM EDTA, and 1 mM phenylmethylsulphonyl fluoride (PMSF). The homogenates were centrifuged at 100,000 g for 60 minutes at 4° C. The supernatant was filtered through […] filter and loaded on a Pharmacia Mono Q anion exchange column (1 ml bed volume) that was equilibrated with 20 mM HEPES, 1 mM EDTA and 0.5 mM PMSF. […] The fractions comprising various PDE activities were pooled separately and used in later studies.
The assays were adapted to a 96-well format. The enzyme was assayed in 5 mM MgCl2, 15 mM Tris HCl (pH 7.4), 0.5 mg/ml bovine serum albumin, 1 μM cGMP or cAMP, 0.1 μCi [^3H]-cGMP or [^3H]-cAMP, and 2-10 μl of column elution. The total volume of the assay was 100 μl. The reaction mixture was incubated at 30° C. for 30 minutes. The reaction was stopped by boiling for 1 minute and then cooled down on ice. The resulting [^3H] 5′-mononucleotides were further converted to uncharged [^3H]-nucleosides by adding 25 μl 1 mg/ml snake venom (Ophiophagus hannah) and incubating at 30° C. for 10 minute. The reaction was stopped by the addition of 1 ml Bio-Rad AG1-X2 resin slurry (1:3). All the charged nucleotides were bound by the resin and only the uncharged [^3H]-nucleosides remained in the supernatant after centrifuging. An aliquot of 200 μl was taken and counted by liquid scintillation. PDE activity was expressed as pmol cyclic nucleotide hydrolyzed/min/ml of enzyme preparation.
Inhibitor studies were carried out in assay buffer with a final concentration of 10% DMSO.

SMILES | % Inh @ 10 μM (rabbit) [%] | % INH @ 10 μM (rabbit) [%]
O=C(c1ccc(-c2cccc(C(F)(F)F)c2)o1)N1CCc2c([nH]c3ccccc23)C1c1ccc2c(c1)OC(F)(F)O2 (stereo not drawn) [Cmpd 22] | 16 | –
Cc1cc(C)cc(C2c3[nH]c4ccccc4c3CCN2C(=O)c2c(-c3ccccc3)noc2C)c1 (racemic) [Cmpd 113] | 29 | –
COc1ccc(C2c3[nH]c4ccccc4c3CCN2C(=O)c2c(-c3ccccc3)noc2C)cc1 (racemic) [Cmpd 117] | 32 | –
O=C(c1ccc(Cl)nc1)N1CCc2c([nH]c3ccccc23)C1c1ccc2c(c1)OCO2 (racemic) [Cmpd 108] | 48 | –
Cc1ccc(-c2cnc(N3CCc4c(n(-c5ncc(-c6ccc(C)cc6)cn5)c5ccccc45)C3c3ccc4c(c3)OCO4)nc2)cc1 (stereo not drawn) [Cmpd 166] | – | 58
CN(C)CCn1c2c(c3ccccc31)CCN(c1nc3ccccc3s1)C2c1ccc2c(c1)OCO2 (stereo not drawn) [Cmpd 2] | 43 | –
c1ccc2oc(N3CCc4c(n(-c5nc6ccccc6o5)c5ccccc45)C3c3ccc4c(c3)OCO4)nc2c1 (stereo not drawn) [Cmpd 150] | – | 4
FC(F)(F)c1ccc(Cl)c(-c2ccc(CN3CCc4c([nH]c5ccccc45)C3c3ccc4c(c3)OCO4)o2)c1 (stereo not drawn) [Cmpd 11] | 53 | –
Cc1oc(-c2ccccc2)cc1C(=O)N1CCc2c([nH]c3ccccc23)C1c1ccc2c(c1)OCO2 (racemic) [Cmpd 104] | 72 | –
O=C(c1ccc(-c2ccc(Cl)cc2)s1)N1CCc2c([nH]c3ccccc23)C1c1ccc2c(c1)OCO2 (stereo not drawn) [Cmpd 91] | 82 | –
COC(=O)c1ccc(C2c3[nH]c4ccccc4c3CCN2C(=O)c2cnn(-c3ccccc3)c2C(F)(F)F)cc1 (stereo not drawn) [Cmpd 129] | 46 | –
Cc1cc(C(=O)N2CCc3c([nH]c4ccccc34)C2c2ccc3c(c2)OCO3)nn1-c1ccccc1 (racemic) [Cmpd 106] | 70 | –
CC(C)(C)c1cc(C(=O)N2CCc3c([nH]c4ccccc34)C2c2ccc3c(c2)OCO3)n(Cc2ccccc2)n1 (stereo not drawn) [Cmpd 136] | 18 | –
CN(C)CCn1c2c(c3ccccc31)CCN(C(=O)c1ccc(-c3cccc(C(F)(F)F)c3)o1)C2c1ccc2c(c1)OCO2 (stereo not drawn) [Cmpd 35] | 98 | –
COc1ccc(C2c3[nH]c4ccccc4c3CCN2C(=O)c2cnn(-c3ccccc3)c2C(F)(F)F)cc1OC (racemic) [Cmpd 121] | 10 | –
CC(C)(C)c1cc(C(=O)N2CCc3c([nH]c4ccccc34)C2c2ccc(Cl)c(Cl)c2)n(Cc2ccccc2)n1 (stereo not drawn) [Cmpd 133] | 1 | –
O=C(c1ccc(-c2cccc([N+](=O)[O-])c2)o1)N1CCc2c(n(C(=O)c3ccc(-c4cccc([N+](=O)[O-])c4)o3)c3ccccc23)C1c1ccc2c(c1)OC(F)(F)O2 (stereo not drawn) [Cmpd 19] | 15 | –
O=C(c1cc(-c2ccc(Cl)cc2)oc1C(F)(F)F)N1CCc2c([nH]c3ccccc23)C1c1ccc2c(c1)OCO2 (racemic) [Cmpd 105] | 40 | –
O=C(c1cnn(-c2ccccc2)c1C(F)(F)F)N1CCc2c([nH]c3ccccc23)C1c1ccc(Cl)c(Cl)c1 (racemic) [Cmpd 120] | 18 | –
O=C(c1ccc(Br)o1)N1CCc2c([nH]c3ccccc23)C1c1ccc2c(c1)OCO2 (stereo not drawn) [Cmpd 63] | 78 | –
CC(C)(C)c1ccc(C(=O)N2CCc3c([nH]c4ccccc34)C2c2ccc3c(c2)OCO3)o1 (stereo not drawn) [Cmpd 65] | 66 | –
Clc1ccc(-c2cnc(N3CCc4c([nH]c5ccccc45)C3c3ccc4c(c3)OCO4)nc2)cc1 (stereo not drawn) [Cmpd 10] | 79 | –
O=C(O)C1Cc2c([nH]c3ccccc23)C(c2ccc3c(c2)OCO3)N1C(=O)c1ccc(-c2cccc(C(F)(F)F)c2)o1 (stereo not drawn) [Cmpd 70] | 46 | –

SMILES | % Inh @ 10 μM (rabbit) [%] | % INH @ 10 μM (rabbit) [%]
O=C(c1cnn(-c2ccccc2)c1C(F)(F)F)N1CCc2c([nH]c3ccccc23)C1c1ccc2c(c1)OCO2 (stereo not drawn) [Cmpd 123] | 56 | –
O=C(c1cc2ccccc2s1)N1CCc2c([nH]c3ccccc23)C1c1ccc2c(c1)OCO2 (stereo not drawn) [Cmpd 18] | 87 | –
Cc1onc(-c2ccccc2)c1C(=O)N1CCc2c([nH]c3ccccc23)C1c1ccc(Cl)c(C(F)(F)F)c1 (racemic) [Cmpd 114] | 27 | –
O=C(c1ccc(-c2cccc([N+](=O)[O-])c2)o1)N1CCc2c([nH]c3ccccc23)C1c1ccncc1 (stereo not drawn) [Cmpd 86] | 69 | –
CC(=O)Nc1ccc(-c2ccc(C(=O)N3CCc4c([nH]c5ccccc45)C3c3ccc4c(c3)OCO4)o2)cc1 (stereo not drawn) [Cmpd 49] | 60 | –
O=C(c1ccc(-c2cccc([N+](=O)[O-])c2)o1)N1CCc2c([nH]c3ccccc23)C1c1ccc([N+](=O)[O-])cc1 (stereo not drawn) [Cmpd 85] | 26 | –
CN(C)CCn1c2c(c3ccccc31)CCN(C(=O)c1ccc(-c3ccccc3[N+](=O)[O-])o1)C2c1ccc2c(c1)OCO2 (stereo not drawn) [Cmpd 41] | 93 | –
CN(C)CCCn1c2c(c3ccccc31)CCN(C(=O)c1ccc(-c3cccc(C(F)(F)F)c3)o1)C2c1ccc2c(c1)OCO2 (stereo not drawn) [Cmpd 44] | 65 | –
O=C(c1ccc(C(F)(F)F)o1)N1CCc2c([nH]c3ccccc23)C1c1ccc2c(c1)OCO2 (stereo not drawn) [Cmpd 62] | 86 | –
O=C(c1ccc(-c2cccc(C(F)(F)F)c2)o1)N1CCc2c(n(CCCCCl)c3ccccc23)C1c1ccc2c(c1)OCO2 (stereo not drawn) [Cmpd 27] | 56 | –
O=C(c1cc2cc([N+](=O)[O-])ccc2o1)N1CCc2c([nH]c3ccccc23)C1c1ccc2c(c1)OCO2 (stereo not drawn) [Cmpd 14] | 88 | –
N#Cc1ccc(C2c3[nH]c4ccccc4c3CCN2C(=O)c2cnn(-c3ccccc3)c2C(F)(F)F)cc1 (stereo not drawn) [Cmpd 128] | 11 | –
CC(C)(C)c1cc(C(=O)N2CCc3c([nH]c4ccccc34)C2c2ccc([N+](=O)[O-])cc2)n(Cc2ccccc2)n1 (stereo not drawn) [Cmpd 142] | −5 | –
CN(C)CCn1c2c(c3ccccc31)CCN(C(=O)c1cc3cc([N+](=O)[O-])ccc3o1)C2c1ccc2c(c1)OCO2 (stereo not drawn) [Cmpd 13] | 94 | –
O=C(c1ccc(-c2cccc(C(F)(F)F)c2)o1)N1CCc2c(n(Cc3ccncc3)c3ccccc23)C1c1ccc2c(c1)OCO2 (stereo not drawn) [Cmpd 74] | 84 | –
CN(C)CCn1c2c(c3ccccc31)CCN(C(=O)c1ccc(C(C)(C)C)o1)C2c1ccc2c(c1)OCO2 (stereo not drawn) [Cmpd 36] | 97 | –
COc1ccc(C2c3[nH]c4ccccc4c3CCN2C(=O)c2c(-c3ccccc3)noc2C)cc1OC (racemic) [Cmpd 110] | 32 | –
CN(C)CCn1c2c(c3ccccc31)CCN(C(=O)c1ccc(-c3cccc([N+](=O)[O-])c3)o1)C2c1ccc2c(c1)OCO2 (stereo not drawn) [Cmpd 38] | 91 | –
O=S(=O)(c1ccccc1)c1ccsc1S(=O)(=O)N1CCc2c([nH]c3ccccc23)C1c1ccc2c(c1)OCO2 (stereo not drawn) [Cmpd 146] | 35 | –
FC(F)(F)c1cccc(-c2ccc(CN3CCc4c([nH]c5ccccc45)C3c3ccc4c(c3)OCO4)o2)c1 (stereo not drawn) [Cmpd 12] | 76 | –
Cc1onc(-c2ccccc2)c1C(=O)N1CCc2c([nH]c3ccccc23)C1c1ccc2c(c1)OCO2 (racemic) [Cmpd 112] | 33 | –
O=S(=O)(c1ccccc1)c1ccc(S(=O)(=O)N2CCc3c([nH]c4ccccc34)C2c2ccc3c(c2)OCO3)s1 (stereo not drawn) [Cmpd 145] | 43 | –
COc1ccc(-c2cnc(N3CCc4c(n(CCN(C)C)c5ccccc45)C3c3ccc4c(c3)OCO4)nc2)cc1 (stereo not drawn) [Cmpd 6] | 95 | –

same assay, conditions: 10 μM test compound; rabbit PDEV; 10 µM

SMILES | % INH @ 10 μM (rabbit) [%] | % Inh @ 10 μM (rabbit)
COc1ccc(-c2cnc(N3CC(O)c4c([nH]c5ccccc45)C3c3ccc4c(c3)OCO4)nc2)cc1 (stereo not drawn) [Cmpd 158, 1-(3,4-Methylenedioxy-phenyl)-2-[5-(4-methoxyphenyl)-pyrimidin-2-yl]-4-hydoxy-2,3,4,9-tetrahydro-1H-β-carboline] | 49 | –
CCN(CC)CCn1c2c(c3ccccc31)CCN(C(=O)c1ccc(-c3cccc(C(F)(F)F)c3)o1)C2c1ccc2c(c1)OCO2 (stereo not drawn) [Cmpd 33] | – | 88% and 63%

same assay, conditions: 10 μM test compound; rabbit PDEV; read-out: % INH @ 10 μM (rabbit)

SMILES | inhibition at 10 µM [%]
c1ccc(-c2cnc(N3CCc4c([nH]c5ccccc45)C3c3ccc4c(c3)OCO4)nc2)nc1 (stereo not drawn) [Cmpd 153] | 95
O=C(c1ccc(-c2ccccc2)o1)N1CCc2c([nH]c3ccccc23)C1c1ccc2c(c1)OCO2 (stereo not drawn) [Cmpd 149] | 80
c1ccc2oc(N3CCc4c([nH]c5ccccc45)C3c3ccc4c(c3)OCO4)nc2c1 (stereo not drawn) [Cmpd 151] | 95
